For experiment [1], the target named is T1, AKAP-Lbc (guanine nucleotide exchange on RhoA) (Homo sapiens, UniProt Q12802).
T1 sequence (Q12802 1994-2333): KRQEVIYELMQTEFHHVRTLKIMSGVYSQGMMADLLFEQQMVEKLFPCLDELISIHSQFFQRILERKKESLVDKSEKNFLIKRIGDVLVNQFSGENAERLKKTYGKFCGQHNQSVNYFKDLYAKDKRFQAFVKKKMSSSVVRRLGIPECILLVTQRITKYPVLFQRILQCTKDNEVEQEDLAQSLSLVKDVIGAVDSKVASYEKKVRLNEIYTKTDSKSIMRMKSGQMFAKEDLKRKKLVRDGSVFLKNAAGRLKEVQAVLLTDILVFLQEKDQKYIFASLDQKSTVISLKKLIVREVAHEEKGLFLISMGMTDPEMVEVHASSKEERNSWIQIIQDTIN
The experiment in a line: RhoGEF nucleotide exchange assay (GDP against mGTP on RhoA). The conditions noted are these: IC50 (fifty percent inhibition of nucleotide exchange), 15 min.
Procedure: Following the protocol of the RhoGEF exchange assay Biochem Kit, a nucleotide exchange experiment for AKAP-Lbc and RhoA was established. The fluorescence labelled nucleotide analogues 2′(3′)-O—(N-methylanthraniloyl)-guanosine diphosphate and 2′(3′)-O—(N-methylanthraniloyl)-guanosine triphosphate, hereinafter referred to mGDP and mGTP, were used for tracing the nucleotide exchange.
25 μl depletion buffer (100 mmol/L sodium phosphate, pH 7.4, 5 mmol/L EDTA, 200 mmol/L ammonium sulfate) with an excess of mGDP (5 mmol/L) were added to 200 μg recombinant his6-RhoA (25 μl) and incubated one hour at room temperature. Then, magnesium chloride (MgCl2) was added to a final concentration of 10 mmol/L.
By centrifugation with Vivaspin® 500 concentrator vials (MWCO 5 kDa, 10 min, 10000 rpm) and buffer (100 mmol/L sodium phosphate, pH 7.4, 100 mmol/L NaCl, protease inhibitor [cOmplete, Mini, EDTA-free protease inhibitor cocktaile]) RhoA-mGDP was washed twice and reduced to 100 μl. 1 μmol/L RhoA-mGDP and 0.5 μmol/L AKAP-Lbc DHPH in nucleotide exchange buffer (40 mmol/L Tris pH 7.5; 100 mmol/L NaCl; 20 mmol/L MgCl2, 100 μg/ml BSA) were used for the nucleotide exchange. The fluorescence measurements were performed in a micro plate reader (TECAN Safire) over a period of 15 min, whereby the fluorophore of mGDP was excited at 360 nm and the resulting fluorescence signal was determined at 440 nm.
At a concentration relation of 2 μmol/L protein and 1 μmol/L mGTP, an ideal fluorescence signal-to-noise-ratio was found in the nucleotide exchange buffer (40 mM Tris pH 7.5, 100 mmol/L NaCl, 20 mmol/L MgCl2, 100 μg/ml BSA). The fluorescence signal for mGTP was measured analogous to mGDP (λexc=360 nm; λem=440 nm) in a micro plate reader (TECAN Safire) over a period of 15 min. The experiment was performed in a 384-well plate.

Experiment [2] concerns primary neonatal rat cardiomyocytes. Description: Beat frequency of neonatal cardiomyocytes by Fluo-4 calcium measurement. It is filed as cell-based. The conditions noted are these: Fluo-4, from 100 bpm.
Procedure: The frequency of contraction could be determined in a similar manner with a calcium sensor (Fluo-4). In a laser-scanning microscope, Fluo-4 was excited with an argon laser (488 nm) and the emission signals were detected and collected at a wavelength of 505 nm. The fluorescence intensity represented the intracellular concentration of calcium ions. Usually, the line-scan mode was used for image recording, and the line-scan images were recorded with a speed of 1.54 or 1.92 ms per line along the longitudinal axis of the cell. After the sequential image recording, a two-dimensional image with 512×100 lines or 512×2000 lines was generated and saved for later analysis.
Additional calcium measurements were performed. […] The fluorescence dye Fluo-4 was added after 20 min. Fluo-4 is a calcium sensor, which is used for investigating the calcium increase in cells. In cardiomyocytes the dye serves for examining the contractility. During contraction and relaxation, the calcium concentrations differ in the cytosol of cardiomyocytes. The fluorescence intensity of Fluo-4 increases with an increasing calcium concentration, and a decreasing calcium concentration will cause reduced fluorescence intensity. A frequency could be calculated from the fluo-4 fluorescence oscillation by a time depended analysis, wherein the fluorescence was measured over a period of two hours. The ground state at the moment before application (black), the period 10 to 30 sec after application (dark grey) and 70 to 110 sec after application (light grey) were evaluated (FIG. 5). Application refers to the adding of PE or adrenaline. […] The statistical analysis was performed according to the method of analysis of variance (ANOVA).
The test system of experiment [3] is primary neonatal cardiomyocytes (α-sceletal muscle actin mRNA). The experiment in a line: Hypertrophy marker α-actin 1 mRNA by quantitative real-time PCR. To be noted: PE 100 μmol/L, 24 hours. The experiment is classed as cell-based, rat. On the procedure: Primary neonatal cardiomyocytes were prepared as described above. The cardiomyocytes were stimulated for 24 or 48 hours with 100 μmol/L phenylephrin (PE) or 10 μmol/L isoproterenol (ISO) in absence or presence of 10 μmol/L or 50 μmol/L of compound 31413.
After 24 hours or 48 hour of stimulation, the medium was removed, and every well was washed with 2 ml phosphate buffered saline and fixed with 200 μl TRIzol. The cells were removed from each well and transferred into a 1.5 ml Eppendorf tube, respectively.
For cell breakdown, 40 μl chloroform was added to each Eppendorf tube. The broken cells were centrifuged for 15 min at 1400 g and 4° C. The supernatant containing RNA/DNA was taken, mixed with 100 μl isopropanol and centrifugated for 20 min at 1500 g and 4° C. The supernatant was discarded and the pellet was resuspended in 500 μL ethanol. The RNA from the pellet was purified by chromatography. The concentration of the RNA was determined by NANODROP.
The quantification of the hypertrophy marker α-sceletal muscle actin (α-actin 1) mRNA was performed by quantitative real-time PCR. First, the RNA was transcribed to a cDNA with a SuperScript™III First-Strand Synthesis SuperMix (Invitrogen) and random hexamer primers. The cDNA was amplified in a PCR reaction in an Applied Biosystem StepOne™ Real-Time PCR System. Glycerinealdehydephosphate dehydrogenase and NTC (no template control) was used as controls. All samples were triplicates. The following primers have been used: […]
On the technique in general: Real-time PCR tracks product formation cycle by cycle.

In experiment [4] the test system is primary neonatal rat cardiomyocytes. The experiment in a line: Beat rate of neonatal cardiomyocytes counted by light microscope. The experiment is classed as cell-based. To be noted: PE 100 μmol/L for six hours, from 100 bpm. As to the method: For cultivation of primary neonatal rat cardiomyocytes, hearts of two to three days old rats were obtained and quickly stored on ice in ADS buffer (116.4 mM NaCl, 5.4 mM KC, 5.6 mM dextrose, 10.9 mM NaH2PO4, 405.7 μmol/L MgSO4, 20 mM Hepes, pH 7.3). Under sterile conditions, the hearts were cleaned from blood and vessels, cut into small pieces and transferred into falcon tubes. The ADS buffer was exchanged against an enzyme solution (see table below). Within four cycles each with five ml enzyme solution and an enzyme mix comprising collagenase and pancreatin, isolated cells were released from the tissue (12 min at 37° C. in a water bath with approx. 220 rpm).
The supernatant with the isolated cells was collected, transferred in fetal calf serum (FCS, 2.5 ml on ice) and subsequently centrifugated in FCS (100 g for 3 min at 4° C.). The supernatant of the centrifugation was discarded and the pellet was resuspended in 5 ml cold plating medium. After an additional centrifugation, the pellet was resuspended in 15 ml medium, transferred into a dish and incubated for two hours at 37° C. to allow the settling of the fibroblasts. The cardiomyocytes in the supernatant were counted with a Scepter Handheld Automated Cell Counter and transferred in dishes coated with gelatine. On the following day the medium was changed.
The neonatal cardiomyocytes were seeded in 6-well plates with 1.5×10^6 cell per well. The stimulation with 100 μmol/L phenylephrine (PE) was performed for six or twenty four hours at 37° C. Untreated cells served as control. The effect of compound 31413 on the α-adrenergic stimulation of the cardiomyocytes was determined after incubation with the compound for three hours. To do this, the contraction of the cells was counted within a minute and different conditions were compared.
Isolated neonatal cardiomyocytes were used to investigate the relation between AKAP-Lbc induced RhoA activation and the contractility of the heart. After a chronic stimulation of the α1-adreno receptors (AR) with the specific agonist PE for six hours, the beats of the cardiomyocytes were counted over a period of 15 s and a beat rate per minute (bpm) was calculated. An increase of the beat rate of the cardiomyocytes from 100 bpm to 160 beats per minute could be observed. […] The beat rate of neonatal cardiomyocytes was counted with help of a light microscope.

The next experiment concerns 3T3 mouse fibroblasts. The experiment in a line: LPA-induced stress fibre formation, TRITC-phalloidin fluorescence. The experiment is classed as cell-based. The conditions noted are these: 3T3 cells, LPA alone (DMSO). The source says: For the initial analysis, 3T3 cells were used to evaluate the cellular effects of the compounds of the present invention. In these cells changes in the cytoskeleton caused by GTPase activation are well observable, because the cells have a G protein coupled receptor for LPA. A stimulation of 3T3 cells with LPA leads to an activation of RhoA and thereby to the formation of fibrillar actin filaments (F-actin, stress fibres). The participation of AKAP-Lbc as an exchange factor for RhoA within the signal transduction via a G protein of the G−12/13 family was shown.
3T3 mouse fibroblasts were seeded on 30 mm cover slips (in 6 well plates) in a cell density of 2×10^5 cells/well. […]
Following that, the cells were washed with phosphate buffer (Dulbecco's Phosphate-Buffered Saline++) and fixed in 2.5% paraformaldehyde in sodium cacodylate buffer (100 mmol/L sodium cacodylate, 100 mmol/L sucrose, pH 7.4) for 15 min. […] For the microscopic investigations, images were taken with two different fluorescence channels. […]
Without LPA stimulation no stress fibres could be identified after addition of DMSO instead of the compounds of the invention (FIG. 2A, a). […] The quantification of the stress fibre formation were performed with the software package ImageJ by the determination of the overall fluorescence of the TRITC-phalloidin. […]

For the molecule `CCCCc1cc(=O)oc2cc3occ(-c4ccc(OC)cc4)c3cc12` [Compound 31892, 5-butyl-3-(4-methoxyphenyl)furo[3,2-g]chromen-7-one], the IC50 (usually the midpoint of a concentration-inhibition curve) in experiment [1] turned out to be 78.9 µM. As for `CNCC(O)c1ccc(O)c(O)c1` (stereo not shown) [adrenaline, reference compound], in experiment [2], the frequency after stimulation is given as 200 bpm.

Turning to `CNC[C@H](O)c1cccc(O)c1` [PE, phenylephrine, reference compound], the “increase in relative amount of α-actin 1 mRNA” value in experiment [3] is “threefold increase”. For the same molecule, the “beat rate of the cardiomyocytes after stimulation” value in experiment [4] came out at 160 beats per minute. In addition, the frequency after stimulation in experiment [2] was found to be 150 bpm. Consider `CCCc1cc(=O)oc2cc3occ(-c4ccc(OC)cc4)c3cc12` [Compound 31864, 3-(4-methoxyphenyl)-5-propyl-furo[3,2-g]chromen-7-one], for which, in experiment [1], the midpoint of inhibition, the IC50, lay at 39.9 µM.

Take “lysophosphatide acid [LPA, reference compound]”: the “formation of stress fibres after stimulation” value in the experiment with 3T3 mouse fibroblasts is on record as “clear formation of stress fibres”.
